Data set [1] in a line: Preformulation solubility in vehicles. It counts as physicochemical. The procedure: (§1) Preformulation studies of swainsonine hydrochloride, bulk drug substance, and in combination with powder and semisolid fill gelatin capsules were conducted with respect to the following: hygroscopicity, pH, stability, and solubility. […] At 20% and 50% RH it absorbed 1.9% and 2.1% of water by Karl Fischer after 48 hours of storage. The moisture uptake diminishes when anhydrous powder excipients (e.g. lactose anhydrous and mannitol powder) are used to formulate the pharmaceutical active into a hard capsule.
Therefore for soft gelatin capsule formulations hydrophilic vehicles are preferred. The use of a co-solvent such as glycerin or propylene glycol in PEGs may be feasible for liquid or semisolid fills.

Data set [2] is described as follows: Preformulation hygroscopicity study of bulk drug (water uptake, Karl Fischer). The note with it: for water absorbed by Karl Fischer: after 48 hours of storage; for water absorbed: 75% RH. It counts as physicochemical. The procedure:
as §1

The target of the next data set is T1, lysosomal mannosidase (Homo sapiens, UniProt O00754).
T1 sequence (O00754 50-1011): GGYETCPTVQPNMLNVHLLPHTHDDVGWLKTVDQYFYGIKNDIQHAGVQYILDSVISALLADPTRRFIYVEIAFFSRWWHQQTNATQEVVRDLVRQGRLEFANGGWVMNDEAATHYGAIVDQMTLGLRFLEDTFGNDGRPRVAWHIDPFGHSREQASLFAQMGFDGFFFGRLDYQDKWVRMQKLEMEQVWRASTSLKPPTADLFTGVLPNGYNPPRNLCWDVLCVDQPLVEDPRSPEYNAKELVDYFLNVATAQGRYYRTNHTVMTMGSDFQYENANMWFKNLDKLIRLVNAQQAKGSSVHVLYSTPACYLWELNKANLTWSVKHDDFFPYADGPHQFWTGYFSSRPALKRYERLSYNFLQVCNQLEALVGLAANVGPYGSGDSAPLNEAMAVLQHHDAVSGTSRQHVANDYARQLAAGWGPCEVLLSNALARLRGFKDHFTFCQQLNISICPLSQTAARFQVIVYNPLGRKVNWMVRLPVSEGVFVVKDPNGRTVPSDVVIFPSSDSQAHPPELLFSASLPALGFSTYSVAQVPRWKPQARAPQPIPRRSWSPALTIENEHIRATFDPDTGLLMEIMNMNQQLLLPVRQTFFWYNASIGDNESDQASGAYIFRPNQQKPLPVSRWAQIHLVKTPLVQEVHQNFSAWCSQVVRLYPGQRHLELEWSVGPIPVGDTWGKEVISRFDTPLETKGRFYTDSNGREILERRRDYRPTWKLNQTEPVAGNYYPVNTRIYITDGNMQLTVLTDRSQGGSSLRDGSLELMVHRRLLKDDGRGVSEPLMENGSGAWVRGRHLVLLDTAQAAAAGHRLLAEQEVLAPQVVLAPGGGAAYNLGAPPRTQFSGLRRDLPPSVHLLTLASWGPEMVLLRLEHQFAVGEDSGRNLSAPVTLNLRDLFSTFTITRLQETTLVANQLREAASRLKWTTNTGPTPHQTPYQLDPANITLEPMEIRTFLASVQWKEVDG
The experiment in a line: Inhibition of lysosomal mannosidase in vitro. It counts as biochemical. The note with it: pH 5.0, 60 min at 37° C. The procedure:
The effects of the compounds of the invention on lysosomal mannosidase were measured by adding (10 μl) of the compounds into 96 well Elisa plates followed by the addition of 200 mM sodium acetate pH 5.0 and 25 μl of 10 mM p-nitrophenyl α-D-mannospyranoside. 15 μl of lysosomal mannosidase ( about 8 mM/mL) was added to each well and the plates were incubated for 60 min at 37° C. The reaction was stopped by the addition of 50 μl of 0.5M sodium carbonate and formation of p-nitrophenol was measured with a plate set at 405.

Molecules are shown by their SMILES.

The IC50 is the point on the concentration scale where inhibition reaches its midpoint. A high value points to weaker potency.

In the case of `Cl.O[C@H]1[C@H]2[C@H](O)CCCN2C[C@@H]1O` [swainsonine hydrochloride, (−)-(1S,2S,8R,8aR)-1,2,8-trihydroxyoctahydro-indolizidine hydrochloride salt], the “solubility in aqueous and hydrophilic vehicles” value in data set [1] is listed as “highly soluble”. The “water absorbed by Karl Fischer” value is given as 1.9% in data set [2] (20% RH) and 2.1% in data set [2] (50% RH). The water absorbed entry is “approximately 8 % (w/w)” in data set [2] (first 2 hours) and ~24 % (w/w) in data set [2] (first 8 hours). Also, the hygroscopicity result in data set [2] (bulk drug) is on record as “highly hygroscopic”. At lysosomal mannosidase, the IC50 stood at 45 ± 10 nM.

The record behind these values is US6395745B1, “Alkaloid halide salts of swainsonine and methods of use” (priority 1997, dated 2002).
